Test results: ChEMBL document CHEMBL1201862, “PubChem BioAssay data set” (2004)
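Cultured in 96-well plates, cells were exposed to test compound for 48 hours across five concentrations. The concentration for 50% growth inhibition is given as GI50.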 Activity calls are given as the source filed them. Rule as the data show it: active = GI50 up to about 1.1 µM and inactive = higher.

What was measured:
Experiment in all cases: DTP human tumour cell line panel, 48 h
786-0 = test system: 786-0
A498 = test system: A498
DLD-1 = test system: DLD-1
EKVX = test system: EKVX
HL-60 = test system: HL-60
HT-29 = test system: HT-29
KM12 = test system: KM12
M14 = test system: M14
NCI-H226 = test system: NCI-H226
NCI-H23 = test system: NCI-H23
NCI-H460 = test system: NCI-H460
OVCAR-4 = test system: OVCAR-4
OVCAR-5 = test system: OVCAR-5
OVCAR-8 = test system: OVCAR-8
SF-268 = test system: SF-268
SK-OV-3 = test system: SK-OV-3
UACC-257 = test system: UACC-257
Hs-578T = test system: Hs-578T
MCF7 = test system: MCF7
T47D = test system: T47D

Measured: GI50

COc1cc(Nc2nc3cc(C(F)(F)F)ccc3nc2-c2ccccc2)cc(OC)c1OC
inactive: 786-0 40.7 µM | A498 > 100 µM | DLD-1 > 100 µM | EKVX 24.3 µM | HL-60 39.3 µM | HT-29 > 100 µM | KM12 > 100 µM | M14 > 100 µM | NCI-H226 > 100 µM | NCI-H23 > 100 µM | NCI-H460 > 100 µM | OVCAR-4 5.82 µM | OVCAR-5 > 100 µM | OVCAR-8 > 100 µM | SF-268 > 100 µM | SK-OV-3 31.6 µM | UACC-257 73.6 µM

CSC1CC2C(CC1(C)SC)C2(C)C (configuration not stated)
inactive: 786-0 64.9 µM | A498 > 100 µM | DLD-1 58.1 µM | EKVX 30.2 µM | HL-60 20.2 µM | HT-29 38.8 µM | KM12 48.2 µM | M14 92 µM | NCI-H226 24.7 µM | NCI-H23 61.7 µM | NCI-H460 23.9 µM | OVCAR-4 62.8 µM | OVCAR-5 40.8 µM | OVCAR-8 39.5 µM | SF-268 > 100 µM | SK-OV-3 39.9 µM | UACC-257 29.9 µM

CCN1C(=O)/C(=C\c2coc3ccccc3c2=O)SC1=S
inactive: 786-0 73.8 µM | A498 > 100 µM | DLD-1 > 100 µM | EKVX > 100 µM | HL-60 > 100 µM | HT-29 > 100 µM | KM12 > 100 µM | M14 > 100 µM | NCI-H226 > 100 µM | NCI-H23 58.9 µM | NCI-H460 > 100 µM | OVCAR-4 > 100 µM | OVCAR-5 > 100 µM | OVCAR-8 > 100 µM | SF-268 66.8 µM | SK-OV-3 > 100 µM | UACC-257 > 100 µM

COc1ccc(/C(=C/n2ccnc2)C(O)c2ccc(OC)c(OC)c2)cc1OC (configuration not stated)
inactive: 786-0 > 100 µM | A498 68.9 µM | DLD-1 > 100 µM | HL-60 28.8 µM | HT-29 > 100 µM | KM12 > 100 µM | M14 > 100 µM | NCI-H226 > 100 µM | NCI-H23 > 100 µM | NCI-H460 71.6 µM | OVCAR-4 > 100 µM | OVCAR-5 > 100 µM | OVCAR-8 > 100 µM | SF-268 > 100 µM | SK-OV-3 > 100 µM | UACC-257 > 100 µM

C#CCN(N=O)C(=O)NC(CCCNC(=O)OCc1ccccc1)C(=O)OCc1ccccc1 (configuration not stated)
inactive: 786-0 > 100 µM | A498 > 100 µM | DLD-1 57.1 µM | EKVX > 100 µM | HL-60 20.1 µM | HT-29 > 100 µM | KM12 > 100 µM | M14 > 100 µM | NCI-H226 > 100 µM | NCI-H23 > 100 µM | NCI-H460 > 100 µM | OVCAR-4 > 100 µM | OVCAR-5 > 100 µM | OVCAR-8 43.4 µM | SF-268 18.2 µM | SK-OV-3 > 100 µM | UACC-257 77.1 µM

CN(C)CC1CCCC/C1=N/OC(=O)c1ccc(Cl)c(Cl)c1 (configuration not stated)
inactive: 786-0 > 100 µM | A498 > 100 µM | DLD-1 > 100 µM | EKVX > 100 µM | HL-60 > 100 µM | HT-29 > 100 µM | KM12 > 100 µM | M14 > 100 µM | NCI-H226 > 100 µM | NCI-H23 > 100 µM | NCI-H460 > 100 µM | OVCAR-4 > 100 µM | OVCAR-5 > 100 µM | OVCAR-8 > 100 µM | SF-268 > 100 µM | SK-OV-3 > 100 µM | UACC-257 > 100 µM

CC1=NC(C(C)C)C(=O)O1 (configuration not stated)
inactive: 786-0 58.1 µM | A498 > 100 µM | DLD-1 56.2 µM | EKVX > 100 µM | HL-60 > 100 µM | HT-29 61.1 µM | KM12 > 100 µM | M14 > 100 µM | NCI-H226 > 100 µM | NCI-H23 > 100 µM | NCI-H460 > 100 µM | OVCAR-4 > 100 µM | OVCAR-5 > 100 µM | OVCAR-8 > 100 µM | SF-268 45.1 µM | SK-OV-3 > 100 µM | UACC-257 > 100 µM

Cc1ccc2ccc(-c3ccccc3)c3c2c1C(=O)c1ccccc1C3=O
inactive: 786-0 36.5 µM | A498 74 µM | DLD-1 > 100 µM | EKVX > 100 µM | HL-60 > 100 µM | HT-29 > 100 µM | KM12 > 100 µM | M14 79.8 µM | NCI-H226 > 100 µM | NCI-H23 > 100 µM | OVCAR-5 > 100 µM | OVCAR-8 72.4 µM | SF-268 45.5 µM | SK-OV-3 41.7 µM | UACC-257 > 100 µM

CNC(=O)NC(CCCCNC(=O)OCc1ccccc1)C(=O)OCc1ccccc1 (configuration not stated)
inactive: 786-0 80.2 µM | A498 20.3 µM | DLD-1 > 100 µM | EKVX 59.8 µM | HL-60 26.2 µM | HT-29 > 100 µM | Hs-578T 79.8 µM | KM12 > 100 µM | M14 19.5 µM | MCF7 53 µM | NCI-H226 42.9 µM | NCI-H23 47.6 µM | NCI-H460 > 100 µM | OVCAR-4 76.4 µM | OVCAR-5 > 61.4 µM | OVCAR-8 61.4 µM | SF-268 57.3 µM | SK-OV-3 > 100 µM | T47D 28.1 µM | UACC-257 16.9 µM

O=C(O)C(CS)Nc1c2ccccc2[n+]([O-])c2ccccc12 (configuration not stated)
inactive: 786-0 > 100 µM | A498 > 100 µM | DLD-1 95.9 µM | EKVX 80.4 µM | HL-60 50.2 µM | HT-29 > 100 µM | KM12 > 100 µM | M14 > 100 µM | NCI-H226 > 100 µM | NCI-H23 87.7 µM | NCI-H460 > 100 µM | OVCAR-4 > 100 µM | OVCAR-5 > 100 µM | OVCAR-8 > 100 µM | SF-268 > 100 µM | SK-OV-3 > 100 µM | UACC-257 > 100 µM

CN1C(c2ccccc2)CC(=O)C(N)C1c1ccccc1 (configuration not stated)
inactive: 786-0 31.3 µM | A498 > 67.6 µM | DLD-1 30.2 µM | EKVX > 53 µM | HL-60 20.6 µM | HT-29 23.9 µM | KM12 23.9 µM | M14 26.6 µM | NCI-H226 39.4 µM | NCI-H23 42.5 µM | NCI-H460 22.2 µM | OVCAR-4 49.4 µM | OVCAR-5 35.4 µM | OVCAR-8 26.8 µM | SF-268 38.2 µM | SK-OV-3 > 58.6 µM | UACC-257 30.3 µM
